Source: US11242337B2, “Compounds useful for treating gastrointestinal tract disorders” (Ardelyx, Inc., priority 2017, dated 2022)
Like-named read-outs stand apart in the source and are kept apart here.

How the values were obtained:
[1] = test system: human duodenum monolayer culture; assay: Increased trans-epithelial resistance (TEER) in human organoid monolayer cell cultures; assay type: cell-based; details: 1 μM apical, baseline corrected
Outline: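 Human duodenum organoid-derived monolayers on 0.4 μm Transwells, differentiated with EGF, noggin, A83-01 from day 3, dosed apically on day 6 or 7 with 1 μM compound at 37° C., 5% CO2, duplicate wells. TEER read before and 30 min and 1 hr after dosing, baseline-corrected and expressed as percent of DMSO vehicle.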

[2] = test system: absorption of sodium from the intestinal lumen; assay: Inhibition of intestinal sodium absorption in mice; assay type: in vivo; details: CD-1 mice, 15 mg/kg oral gavage twice daily; for Fecal fluid content (Δ from vehicle): day 3, change from vehicle group mean; for response vs control in vivo at 15 mg/kg: Mus musculus, 72 h, day 3, normalized to dietary sodium intake
Outline: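 Male ~8-week CD-1 mice on chow with added 0.4% inorganic phosphorous, in metabolic cages after 3-day acclimation and 24-hr baseline collection. Urine sodium by ion chromatography, dried fecal sodium by MP-AES; day-3 24-hour excretion normalized to dietary sodium intake and expressed as % of vehicle mean; diarrhea and fecal fluid also recorded.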

[3] = 1 hr after dosing, read-out: TEER at 60 minutes (% of Vehicle)
[4] = 0.5 h, 30 mins after dosing, read-out: TEER at 30 minutes (% of Vehicle)
[5] = read-out: Fecal Na Excretion (% of vehicle)
[6] = read-out: Urinary Na Excretion (% of vehicle)

SMILES	activity at 1 µM [1, 3] [%]	activity at 1 µM [1, 4] [%]	Fecal fluid content (Δ from vehicle) [2]	response vs control in vivo at 15 mg/kg [2, 5] [%]	response vs control in vivo at 15 mg/kg [2, 6] [%]
Cc1cc(S(=O)(=O)NCCOCCOCCNC(=O)NCCCCNC(=O)NCCOCCOCCNS(=O)(=O)c2ccc(O[C@H]3c4cc(Cl)cc(C#N)c4C[C@@H]3N3CCNCC3)c(C)c2)ccc1O[C@H]1c2cc(Cl)cc(C#N)c2C[C@@H]1N1CCNCC1 [Example 42, 3-[2-(2-[2-[(4-[[(1S,2S)-6-Chloro-4-cyano-2-(piperazin-1-yl)-2,3-dihydro-1H-inden-1-yl]oxy]-3-methylbenzene)sulfonamido]ethoxy]ethoxy)ethyl]-1-[4-([[2-(2-[2-[(4-[[(1S,2S)-6-chloro-4-cyano-2-(piperazin-1-yl)-2,3-dihydro-1H-inden-1-yl]oxy]-3-methylbenzene)sulfonamido]ethoxy]ethoxy)ethyl]carbamoyl]amino)butyl]urea; bis(trifluoroacetic acid)]	> 130	100 to 130	B (5-10)	150 to 200	< 50
N#Cc1cc(Cl)cc2c1C[C@H](N1CCNCC1)[C@H]2Oc1ccc(S(=O)(=O)NCCOCCOCCNC(=O)NCCCCNC(=O)NCCOCCOCCNS(=O)(=O)c2ccc(O[C@H]3c4cc(Cl)cc(C#N)c4C[C@@H]3N3CCNCC3)c(F)c2)cc1F [Example 43, 3-[2-(2-[2-[(4-[[(1S,2S)-6-Chloro-4-cyano-2-(piperazin-1-yl)-2,3-dihydro-1H-inden-1-yl]oxy]-3-fluorobenzene)sulfonamido]ethoxy]ethoxy)ethyl]-1-[4-([[2-(2-[2-[(4-[[(1S,2S)-6-chloro-4-cyano-2-(piperazin-1-yl)-2,3-dihydro-1H-inden-1-yl]oxy]-3-fluorobenzene)sulfonamido]ethoxy]ethoxy)ethyl]carbamoyl]amino)butyl]urea; bis(trifluoroacetic acid)]	100 to 130	100 to 130	C (>10)	> 200	< 50
